# Experimental data reported in patent US7407775B2, “Method for identifying Listeria monocytogenes and culture medium” (Biomerieux S.A., priority 2000, dated 2008).
# Tests used:
# Type in all cases: cell-based
# Conditions in all cases: 37° C., substrate 250 mg/l
# [1] = test system: Listeria monocytogenes ATCC 19115; test: Experiment 1: esterase substrates, same chromogenic marker, fatty acids of different chain lengths; design: key to I (intensity of the color): —: the symbol “-” corresponds to the absence of color or intensity; 0 corresponds to no activity; 0.1 corresponds to a trace of color; 0.5 corresponds to very pale coloration; 1 corresponds to clear but low-intensity coloration; 1.5 corresponds to a degree of coloration intermediate between scores 1 and 2; 2 corresponds to clear coloration of moderate intensity; 2.5 corresponds to a degree of coloration intermediate between scores 2 and 3; 3 corresponds to intense coloration; 3.5 corresponds to a degree of coloration intermediate between scores 3 and 4; 4 corresponds to very intense coloration
# Protocol: (§1) A stock solution of each substrate at a concentration of 40 g/l was made up in a mixture of 40% Dimethylsulfoxide and 60% Polyoxyethylenesorbitan Monolaurate (Tween 20). An appropriate volume was added to three Columbia-type media while cooling to give a final substrate concentration of 250 mg/l. These dishes were divided into three areas and then each area was inoculated with a suspension (density=0.5 McFarland) of microorganisms taken from either the Applicant's own collection or the ATCC. The dishes were incubated for 48 hours at 37° C. The colonies which grew were examined by eye after 24 and 48 hours of incubation. Both the color and the intensity of the color of the colonies were recorded.
# (§2) In Table 1 above, as in the following Tables, C represents the color of the colonies after incubation, I represents the intensity of the color, and the symbol “-” corresponds to the absence of color or intensity; finally, IT defines the incubation time. It should be noted that the intensity of the color is scored on an arbitrary scale but one which is consistent for all the biological specimens and media tested. This scale is valid for this experiment as well as all those that follow. It can be defined in the following way: • 0 corresponds to no activity, • 0.1 corresponds to a trace of color, • 0.5 corresponds to very pale coloration, • 1 corresponds to clear but low-intensity coloration, • 1.5 corresponds to a degree of coloration intermediate between scores 1 and 2, • 2 corresponds to clear coloration of moderate intensity, • 2.5 corresponds to a degree of coloration intermediate between scores 2 and 3, • 3 corresponds to intense coloration, • 3.5 corresponds to a degree of coloration intermediate between scores 3 and 4, • 4 corresponds to very intense coloration.
# [2] = test system: Listeria monocytogenes 092; test: as above; design: key to I (intensity of the color): —: the symbol “-” corresponds to the absence of color or intensity; 0 corresponds to no activity; 0.1 corresponds to a trace of color; 0.5 corresponds to very pale coloration; 1 corresponds to clear but low-intensity coloration; 1.5 corresponds to a degree of coloration intermediate between scores 1 and 2; 2 corresponds to clear coloration of moderate intensity; 2.5 corresponds to a degree of coloration intermediate between scores 2 and 3; 3 corresponds to intense coloration; 3.5 corresponds to a degree of coloration intermediate between scores 3 and 4; 4 corresponds to very intense coloration
# Protocol: as §1, §2
# [3] = test system: Listeria monocytogenes ATCC 19117; test: as above; design: key to I (intensity of the color): —: the symbol “-” corresponds to the absence of color or intensity; 0 corresponds to no activity; 0.1 corresponds to a trace of color; 0.5 corresponds to very pale coloration; 1 corresponds to clear but low-intensity coloration; 1.5 corresponds to a degree of coloration intermediate between scores 1 and 2; 2 corresponds to clear coloration of moderate intensity; 2.5 corresponds to a degree of coloration intermediate between scores 2 and 3; 3 corresponds to intense coloration; 3.5 corresponds to a degree of coloration intermediate between scores 3 and 4; 4 corresponds to very intense coloration
# Protocol: as §1, §2
# Listeria ivanovii 025 = test: Experiment 2: octanoate esterase substrates with different Indoxyl-based chromogenic markers; design: key: —: the symbol “-” corresponds to the absence of color or intensity; 0 corresponds to no activity; 0.1 corresponds to a trace of color; 0.5 corresponds to very pale coloration; 1 corresponds to clear but low-intensity coloration; 1.5 corresponds to a degree of coloration intermediate between scores 1 and 2; 2 corresponds to clear coloration of moderate intensity; 2.5 corresponds to a degree of coloration intermediate between scores 2 and 3; 3 corresponds to intense coloration; 3.5 corresponds to a degree of coloration intermediate between scores 3 and 4; 4 corresponds to very intense coloration
# Protocol: as §2
# as §1, with “and 60% Tween 20. An appropriate” for “and 60% Polyoxyethylenesorbitan Monolaurate (Tween 20). An appropriate”, “added to four Columbia-type media” for “added to three Columbia-type media”
# [4] = test system: Listeria innocua ATCC 33090; test: as above; design: key: —: the symbol “-” corresponds to the absence of color or intensity; 0 corresponds to no activity; 0.1 corresponds to a trace of color; 0.5 corresponds to very pale coloration; 1 corresponds to clear but low-intensity coloration; 1.5 corresponds to a degree of coloration intermediate between scores 1 and 2; 2 corresponds to clear coloration of moderate intensity; 2.5 corresponds to a degree of coloration intermediate between scores 2 and 3; 3 corresponds to intense coloration; 3.5 corresponds to a degree of coloration intermediate between scores 3 and 4; 4 corresponds to very intense coloration
# Protocol: as §2
# as §1, with “and 60% Tween 20. An appropriate” for “and 60% Polyoxyethylenesorbitan Monolaurate (Tween 20). An appropriate”, “added to four Columbia-type media” for “added to three Columbia-type media”
# Listeria innocua 166 = test: as above; design: key: —: the symbol “-” corresponds to the absence of color or intensity; 0 corresponds to no activity; 0.1 corresponds to a trace of color; 0.5 corresponds to very pale coloration; 1 corresponds to clear but low-intensity coloration; 1.5 corresponds to a degree of coloration intermediate between scores 1 and 2; 2 corresponds to clear coloration of moderate intensity; 2.5 corresponds to a degree of coloration intermediate between scores 2 and 3; 3 corresponds to intense coloration; 3.5 corresponds to a degree of coloration intermediate between scores 3 and 4; 4 corresponds to very intense coloration
# Protocol: as §2
# as §1, with “and 60% Tween 20. An appropriate” for “and 60% Polyoxyethylenesorbitan Monolaurate (Tween 20). An appropriate”, “added to four Columbia-type media” for “added to three Columbia-type media”
Compound,C (color of the colonies) ([1]; IT 24 h),C (color of the colonies) ([1]; IT 48 h),C (color of the colonies) ([2]; IT 24 h),C (color of the colonies) ([2]; IT 48 h),C (color of the colonies) ([4]; IT 24 h),C (color of the colonies) ([4]; IT 48 h),C (color of the colonies) (Listeria innocua 166; IT 24 h),C (color of the colonies) (Listeria innocua 166; IT 48 h),I (intensity of the color) ([1]; IT 24 h),I (intensity of the color) ([1]; IT 48 h),I (intensity of the color) ([2]; IT 24 h),I (intensity of the color) ([2]; IT 48 h),C (color of the colonies) (Listeria ivanovii 025; IT 24 h),I (intensity of the color) (Listeria ivanovii 025; IT 24 h),C (color of the colonies) (Listeria ivanovii 025; IT 48 h),I (intensity of the color) (Listeria ivanovii 025; IT 48 h),I (intensity of the color) ([4]; IT 24 h),I (intensity of the color) ([4]; IT 48 h),I (intensity of the color) (Listeria innocua 166; IT 24 h),I (intensity of the color) (Listeria innocua 166; IT 48 h),further results
"CCCCCCCC(=O)Oc1c[nH]c2ccc(Br)cc12 [Blue-C8, 5-Bromo-3-indolyl octanoate]",gray,gray,gray,gray,gray,gray,gray,gray,1,2,1.5,2.5,—,—,—,—,0.3,0.5,0.3,1,C (color of the colonies) ([3]; IT 24 h): gray; I (intensity of the color) ([3]; IT 24 h): 1; C (color of the colonies) ([3]; IT 48 h): gray; I (intensity of the color) ([3]; IT 48 h): 2
"CCCCCCCCC(=O)Oc1c[nH]c2ccc(Br)cc12 [Blue-C9, 5-Bromo-3-indolyl nonanoate]",gray,gray,gray,gray,,,,,1,2,1,2,,,,,,,,,C (color of the colonies) ([3]; IT 24 h): gray; I (intensity of the color) ([3]; IT 24 h): 1; C (color of the colonies) ([3]; IT 48 h): gray; I (intensity of the color) ([3]; IT 48 h): 1.5
"CCCCCCCC(=O)Oc1c[nH]c2cc(Cl)ccc12 [Pink-C8, 6-Chloro-3-indolyl octanoate]",,,,,—,pink,—,pink,,,,,—,—,—,—,—,0.5,—,0.3,

# Now from value to molecule, other results behind:
C (color of the colonies) ([1]; IT 24 h),C (color of the colonies) ([1]; IT 48 h),C (color of the colonies) ([2]; IT 24 h),C (color of the colonies) ([2]; IT 48 h),C (color of the colonies) ([4]; IT 24 h),C (color of the colonies) ([4]; IT 48 h),C (color of the colonies) (Listeria innocua 166; IT 24 h),C (color of the colonies) (Listeria innocua 166; IT 48 h),Compound,I (intensity of the color) ([1]; IT 24 h),I (intensity of the color) ([1]; IT 48 h),I (intensity of the color) ([2]; IT 24 h),I (intensity of the color) ([2]; IT 48 h),C (color of the colonies) (Listeria ivanovii 025; IT 24 h),I (intensity of the color) (Listeria ivanovii 025; IT 24 h),C (color of the colonies) (Listeria ivanovii 025; IT 48 h),I (intensity of the color) (Listeria ivanovii 025; IT 48 h),I (intensity of the color) ([4]; IT 24 h),I (intensity of the color) ([4]; IT 48 h),I (intensity of the color) (Listeria innocua 166; IT 24 h),I (intensity of the color) (Listeria innocua 166; IT 48 h),further results
gray,gray,gray,gray,,,,,"CCCCCCCCCC(=O)Oc1c[nH]c2ccc(Br)cc12 [Blue-C10, 5-Bromo-3-indolyl decanoate]",0.5,1,1,2,,,,,,,,,C (color of the colonies) ([3]; IT 24 h): gray; I (intensity of the color) ([3]; IT 24 h): 0.5; C (color of the colonies) ([3]; IT 48 h): gray; I (intensity of the color) ([3]; IT 48 h): 1
,,,,purple,purple,purple,purple,"CCCCCCCC(=O)Oc1c[nH]c2cc(Cl)c(Br)cc12 [Magenta-C8, 5-Bromo-6-chloro-3-indolyl octanoate]",,,,,—,—,—,—,1,2,2,3,
,,,,turquoise,turquoise,turquoise,turquoise,"CCCCCCCC(=O)Oc1c[nH]c2ccc(Br)c(Cl)c12 [X-C8, 5-Bromo-4-chloro-3-indolyl octanoate]",,,,,—,—,—,—,0.3,0.5,0.3,0.5,
